# Reference: PMC7366380, “Discovery of a Potent and Selective Covalent Inhibitor and Activity-Based Probe for the Deubiquitylating Enzyme UCHL1, with Antifibrotic Activity” (Journal of the American Chemical Society, 2020)
# Where “and” joins values, the source holds several entries; their conditions need not be identical. Identical values can stand only once.
# Experiments:
# Assay in all cases: In-cell proteome-wide competitive ABPP, HEK293: other DUBs and proteins
# [1] = biological target: DUBs and other proteins in HEK293 cells (Homo sapiens, UniProt O00487); conditions: replicates A-C; for Log2 reporter intensity values: PSMD14: competition with ABP 2, DMSO substract (FC); for Log2 reporter intensity values: PSMD14, DMSO subtracted
# Sequence of DUBs and other proteins in HEK293 cells (Homo sapiens, UniProt O00487) (O00487 whole entry): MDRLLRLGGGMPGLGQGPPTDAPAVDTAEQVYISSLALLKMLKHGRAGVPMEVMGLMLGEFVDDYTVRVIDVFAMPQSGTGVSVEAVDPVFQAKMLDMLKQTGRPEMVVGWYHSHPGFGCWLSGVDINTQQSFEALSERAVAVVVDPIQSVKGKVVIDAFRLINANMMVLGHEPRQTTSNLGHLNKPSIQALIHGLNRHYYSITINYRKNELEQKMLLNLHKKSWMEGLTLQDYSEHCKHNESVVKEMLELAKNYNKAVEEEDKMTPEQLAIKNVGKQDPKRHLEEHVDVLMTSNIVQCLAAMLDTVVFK
# [2] = biological target: DUBs and other proteins in HEK293 cells (Homo sapiens, UniProt O15372); conditions: for Log2 reporter intensity values, EIF3H: TMT replicates; for Log2 reporter intensity values: EIF3H: competition with ABP 2, DMSO substract (FC); for Log2 reporter intensity values: EIF3H / Log2 reporter intensity values: replicates A-C; for Log2 t-test Difference / Log2 reporter intensity values: EIF3H
# Sequence of DUBs and other proteins in HEK293 cells (Homo sapiens, UniProt O15372) (O15372 whole entry): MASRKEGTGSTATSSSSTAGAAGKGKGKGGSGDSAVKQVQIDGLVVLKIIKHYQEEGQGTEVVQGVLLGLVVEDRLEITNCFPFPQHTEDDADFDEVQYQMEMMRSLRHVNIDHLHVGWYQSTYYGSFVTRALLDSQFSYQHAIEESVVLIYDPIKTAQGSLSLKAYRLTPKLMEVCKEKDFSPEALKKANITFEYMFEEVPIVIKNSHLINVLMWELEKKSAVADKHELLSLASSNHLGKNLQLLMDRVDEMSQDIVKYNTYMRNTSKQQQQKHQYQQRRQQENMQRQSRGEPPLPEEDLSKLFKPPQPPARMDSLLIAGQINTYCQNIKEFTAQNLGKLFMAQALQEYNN
# [3] = biological target: DUBs and other proteins in HEK293 cells (Homo sapiens, UniProt P54578); conditions: replicates A-C; for Log2 reporter intensity values: USP14: competition with ABP 2, DMSO substract (FC); for Log2 reporter intensity values: USP14, DMSO subtracted
# Sequence of DUBs and other proteins in HEK293 cells (Homo sapiens, UniProt P54578) (P54578 whole entry): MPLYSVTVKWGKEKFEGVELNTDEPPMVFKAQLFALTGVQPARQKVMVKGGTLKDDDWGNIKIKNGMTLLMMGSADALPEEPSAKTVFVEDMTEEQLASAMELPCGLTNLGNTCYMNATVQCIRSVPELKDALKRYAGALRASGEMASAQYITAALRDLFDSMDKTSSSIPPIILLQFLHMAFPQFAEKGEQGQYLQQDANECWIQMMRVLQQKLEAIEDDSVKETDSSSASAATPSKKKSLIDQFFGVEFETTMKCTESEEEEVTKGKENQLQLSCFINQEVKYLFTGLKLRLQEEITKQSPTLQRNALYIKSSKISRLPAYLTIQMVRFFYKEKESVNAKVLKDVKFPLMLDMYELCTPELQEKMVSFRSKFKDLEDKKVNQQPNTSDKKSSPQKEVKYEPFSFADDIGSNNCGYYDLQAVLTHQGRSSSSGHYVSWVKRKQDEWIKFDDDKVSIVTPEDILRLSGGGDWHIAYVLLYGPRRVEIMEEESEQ
# [4] = biological target: DUBs and other proteins in HEK293 cells (Homo sapiens, UniProt Q92905); conditions: for Log2 reporter intensity values, COPS5: TMT replicates; for Log2 reporter intensity values: COPS5: competition with ABP 2, DMSO substract (FC); for Log2 reporter intensity values: COPS5 / Log2 reporter intensity values: replicates A-C; for Log2 t-test Difference / Log2 reporter intensity values: COPS5
# Sequence of DUBs and other proteins in HEK293 cells (Homo sapiens, UniProt Q92905) (Q92905 whole entry): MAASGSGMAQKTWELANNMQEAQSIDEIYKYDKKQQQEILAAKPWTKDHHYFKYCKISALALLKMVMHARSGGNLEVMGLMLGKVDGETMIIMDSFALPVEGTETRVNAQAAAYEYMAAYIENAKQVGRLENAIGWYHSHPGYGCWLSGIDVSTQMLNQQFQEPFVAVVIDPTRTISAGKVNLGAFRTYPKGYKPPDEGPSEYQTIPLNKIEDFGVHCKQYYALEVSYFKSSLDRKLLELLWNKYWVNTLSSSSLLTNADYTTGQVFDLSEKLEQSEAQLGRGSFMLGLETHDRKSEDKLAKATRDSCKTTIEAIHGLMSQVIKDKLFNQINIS
# [5] = biological target: DUBs and other proteins in HEK293 cells (Homo sapiens, UniProt Q93009); conditions: replicates A-C; for Log2 reporter intensity values: USP7: competition with ABP 2, DMSO substract (FC); for Log2 reporter intensity values: USP7, DMSO subtracted
# Sequence of DUBs and other proteins in HEK293 cells (Homo sapiens, UniProt Q93009) (Q93009 whole entry): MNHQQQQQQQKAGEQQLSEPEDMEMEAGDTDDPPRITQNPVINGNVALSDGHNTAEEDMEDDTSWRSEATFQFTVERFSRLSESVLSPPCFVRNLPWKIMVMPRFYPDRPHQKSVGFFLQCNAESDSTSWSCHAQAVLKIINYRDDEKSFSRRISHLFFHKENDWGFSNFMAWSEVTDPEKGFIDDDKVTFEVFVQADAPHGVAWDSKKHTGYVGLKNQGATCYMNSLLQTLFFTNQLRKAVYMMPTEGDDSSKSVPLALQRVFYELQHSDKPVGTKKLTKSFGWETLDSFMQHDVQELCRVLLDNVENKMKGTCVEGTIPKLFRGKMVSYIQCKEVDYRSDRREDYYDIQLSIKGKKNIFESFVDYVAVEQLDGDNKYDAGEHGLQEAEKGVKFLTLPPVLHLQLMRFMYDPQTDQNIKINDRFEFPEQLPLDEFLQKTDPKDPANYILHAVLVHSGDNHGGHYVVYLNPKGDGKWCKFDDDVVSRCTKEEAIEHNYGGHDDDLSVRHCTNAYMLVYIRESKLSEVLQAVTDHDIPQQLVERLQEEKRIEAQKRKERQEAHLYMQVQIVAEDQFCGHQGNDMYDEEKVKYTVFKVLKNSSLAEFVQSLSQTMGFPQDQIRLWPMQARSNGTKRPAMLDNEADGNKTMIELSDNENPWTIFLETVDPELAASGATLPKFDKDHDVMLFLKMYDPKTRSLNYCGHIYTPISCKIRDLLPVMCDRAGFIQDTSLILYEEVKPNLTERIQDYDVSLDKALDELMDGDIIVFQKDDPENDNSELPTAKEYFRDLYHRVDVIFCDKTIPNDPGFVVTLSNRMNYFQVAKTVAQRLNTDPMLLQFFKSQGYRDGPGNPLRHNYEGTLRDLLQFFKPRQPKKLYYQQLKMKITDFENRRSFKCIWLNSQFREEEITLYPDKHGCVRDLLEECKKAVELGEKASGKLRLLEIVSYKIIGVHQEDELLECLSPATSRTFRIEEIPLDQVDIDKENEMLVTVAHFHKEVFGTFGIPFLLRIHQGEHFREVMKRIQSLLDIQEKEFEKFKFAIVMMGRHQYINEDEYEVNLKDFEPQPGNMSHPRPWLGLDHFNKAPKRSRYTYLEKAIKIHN
# [6] = biological target: T1, DUBs and other proteins in HEK293 cells (Homo sapiens, UniProt Q9Y4E8); conditions: replicates A-C; for Log2 reporter intensity values: USP15: competition with ABP 2, DMSO substract (FC); for Log2 reporter intensity values: USP15, DMSO subtracted
# T1 sequence (Q9Y4E8 1-981): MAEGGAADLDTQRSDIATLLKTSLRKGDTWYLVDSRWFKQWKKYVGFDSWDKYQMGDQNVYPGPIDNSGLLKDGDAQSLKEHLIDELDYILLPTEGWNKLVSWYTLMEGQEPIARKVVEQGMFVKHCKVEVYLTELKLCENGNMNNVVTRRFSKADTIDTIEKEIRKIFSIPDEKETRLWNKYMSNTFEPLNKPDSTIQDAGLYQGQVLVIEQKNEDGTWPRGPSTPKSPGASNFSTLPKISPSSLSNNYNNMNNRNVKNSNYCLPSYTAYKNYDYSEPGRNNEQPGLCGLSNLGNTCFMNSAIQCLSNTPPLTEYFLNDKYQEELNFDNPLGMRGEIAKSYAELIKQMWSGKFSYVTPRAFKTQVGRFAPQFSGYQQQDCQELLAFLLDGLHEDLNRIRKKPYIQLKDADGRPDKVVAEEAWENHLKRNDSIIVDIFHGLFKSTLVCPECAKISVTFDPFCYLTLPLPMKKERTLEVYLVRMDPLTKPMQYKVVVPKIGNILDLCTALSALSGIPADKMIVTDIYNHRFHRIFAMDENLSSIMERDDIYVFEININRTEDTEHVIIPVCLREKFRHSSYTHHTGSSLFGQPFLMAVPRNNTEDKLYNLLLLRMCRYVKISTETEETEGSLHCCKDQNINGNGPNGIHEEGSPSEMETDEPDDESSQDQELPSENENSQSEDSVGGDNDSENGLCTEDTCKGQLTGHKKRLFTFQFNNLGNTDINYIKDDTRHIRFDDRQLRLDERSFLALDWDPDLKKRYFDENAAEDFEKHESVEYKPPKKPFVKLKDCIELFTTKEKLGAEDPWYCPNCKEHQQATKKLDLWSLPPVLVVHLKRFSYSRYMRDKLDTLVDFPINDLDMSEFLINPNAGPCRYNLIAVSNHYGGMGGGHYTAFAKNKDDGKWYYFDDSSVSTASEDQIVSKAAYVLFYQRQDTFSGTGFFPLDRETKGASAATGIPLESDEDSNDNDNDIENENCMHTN
# [7] = biological target: T2, DUBs and other proteins in HEK293 cells (Homo sapiens, UniProt Q9Y5K5); conditions: replicates A-C; for Log2 reporter intensity values: UCHL5: competition with ABP 2, DMSO substract (FC); for Log2 reporter intensity values: UCHL5, DMSO subtracted
# T2 sequence (Q9Y5K5 1-329): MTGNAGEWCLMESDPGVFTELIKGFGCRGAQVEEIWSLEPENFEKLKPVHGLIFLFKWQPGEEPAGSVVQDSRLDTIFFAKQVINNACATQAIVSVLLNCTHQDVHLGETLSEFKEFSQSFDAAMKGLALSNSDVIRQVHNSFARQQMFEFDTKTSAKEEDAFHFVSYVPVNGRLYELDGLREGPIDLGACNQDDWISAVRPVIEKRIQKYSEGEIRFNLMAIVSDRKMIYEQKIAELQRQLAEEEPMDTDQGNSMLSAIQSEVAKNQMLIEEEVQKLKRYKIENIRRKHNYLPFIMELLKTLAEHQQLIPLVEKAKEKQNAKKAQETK
# [8] = 1 μM 3 (60 min) + 20 nM ABP 2 (10 min), All values
# [9] = 1 μM 3 (60 min) + 20 nM ABP 2 (10 min), DMSO subtracted
# [10] = 4 μM 3 (60 min) + 20 nM ABP 2 (10 min), All values
# [11] = 4 μM 3 (60 min) + 20 nM ABP 2 (10 min), DMSO subtracted
smiles,measurement,setting,value
N#CN1CCC[C@@H]1C(=O)N1CCc2c(-c3c[nH]c4ncccc34)cccc21 [Compound 3],Log2 reporter intensity values: PSMD14,[1]; 3 at 1 μM,1.063 and 1.033 and 1.055
same,Log2 reporter intensity values: PSMD14,[1]; 3 at 4 μM,1.048 and 1.127 and 1.122
same,Log2 reporter intensity values,[1]; 3_1 μM,0.06036 and 0.03045 and 0.0523
same,Log2 reporter intensity values,[1]; 3_4 μM,0.04582 and 0.1244 and 0.1197
same,Log2 reporter intensity values,[1]; 3 at 1 μM,0.08818 and 0.04699 and 0.07719
same,Log2 reporter intensity values,[1]; 3 at 4 μM,0.06829 and 0.1725 and 0.1665
same,"Log2 reporter intensity values, EIF3H",[2]; [8],-0.08032 and 0.01397 and -0.006379
same,"Log2 reporter intensity values, EIF3H",[2]; [9],-0.1099 and -0.01562 and -0.03597
same,"Log2 reporter intensity values, EIF3H",[2]; [10],0.0444 and 0.04115 and 0.06318
same,"Log2 reporter intensity values, EIF3H",[2]; [11],0.01481 and 0.01156 and 0.03359
same,Log2 reporter intensity values: EIF3H,[2]; 3 at 1 μM,0.9266 and 0.9892 and 0.9754
same,Log2 reporter intensity values: EIF3H,[2]; 3 at 4 μM,1.01 and 1.008 and 1.024
same,Log2 t-test Difference,[2]; 3 - 1 μM,-0.05018
same,Log2 t-test Difference,[2]; 3 - 4 μM,0.02364
same,Log2 reporter intensity values,"[2]; 3_1 μM, DMSO subtracted",-0.0735 and -0.01091 and -0.02477
same,Log2 reporter intensity values,"[2]; 3_4 μM, DMSO subtracted",0.01017 and 0.007903 and 0.02341
same,Log2 reporter intensity values,"[2]; 3 at 1 μM, DMSO subtracted",-0.1099 and -0.01562 and -0.03597
same,Log2 reporter intensity values,"[2]; 3 at 4 μM, DMSO subtracted",0.01481 and 0.01156 and 0.03359
same,Log2 reporter intensity values: USP14,[3]; 3 at 1 μM,1.142 and 1.077 and 1.079
same,Log2 reporter intensity values: USP14,[3]; 3 at 4 μM,1.079 and 1.198 and 1.16
same,Log2 reporter intensity values,[3]; 3_1 μM,0.1415 and 0.07672 and 0.07886
same,Log2 reporter intensity values,[3]; 3_4 μM,0.07915 and 0.1978 and 0.16
same,Log2 reporter intensity values,[3]; 3 at 1 μM,0.1912 and 0.1069 and 0.1098
same,Log2 reporter intensity values,[3]; 3 at 4 μM,0.1102 and 0.2606 and 0.2145
same,"Log2 reporter intensity values, COPS5",[4]; [8],0.001825 and 0.1477 and 0.03353
same,"Log2 reporter intensity values, COPS5",[4]; [9],0.05994 and 0.2058 and 0.09165
same,"Log2 reporter intensity values, COPS5",[4]; [10],-0.03978 and -0.2063 and -0.1486
same,"Log2 reporter intensity values, COPS5",[4]; [11],0.01834 and -0.1481 and -0.09052
same,Log2 reporter intensity values: COPS5,[4]; 3 at 1 μM,1.042 and 1.153 and 1.066
same,Log2 reporter intensity values: COPS5,[4]; 3 at 4 μM,1.013 and 0.9024 and 0.9392
same,Log2 t-test Difference,[4]; 3 - 1 μM,-0.04319
same,Log2 t-test Difference,[4]; 3 - 4 μM,-0.2358
same,Log2 reporter intensity values,"[4]; 3_1 μM, DMSO subtracted",0.04234 and 0.1532 and 0.0655
same,Log2 reporter intensity values,"[4]; 3_4 μM, DMSO subtracted",0.01271 and -0.09767 and -0.0609
same,Log2 reporter intensity values,"[4]; 3 at 1 μM, DMSO subtracted",0.05994 and 0.2058 and 0.09165
same,Log2 reporter intensity values,"[4]; 3 at 4 μM, DMSO subtracted",0.01834 and -0.1481 and -0.09052
same,Log2 reporter intensity values: USP7,[5]; 3 at 1 μM,1.005 and 1.034 and 1.047
same,Log2 reporter intensity values: USP7,[5]; 3 at 4 μM,0.9485 and 1.006 and 0.9977
same,Log2 reporter intensity values,[5]; 3_1 μM,0.004952 and 0.03394 and 0.04709
same,Log2 reporter intensity values,[5]; 3_4 μM,-0.05181 and 0.006115 and -0.002591
same,Log2 reporter intensity values,[5]; 3 at 1 μM,0.007531 and 0.04854 and 0.06677
same,Log2 reporter intensity values,[5]; 3 at 4 μM,-0.07633 and 0.0092 and -0.003335
same,Log2 reporter intensity values: USP15,[6]; 3 at 1 μM,1.093 and 1.008 and 1.068
same,Log2 reporter intensity values: USP15,[6]; 3 at 4 μM,1.017 and 0.9783 and 1.019
same,Log2 reporter intensity values,[6]; 3_1 μM,0.09224 and 0.007674 and 0.06804
same,Log2 reporter intensity values,[6]; 3_4 μM,0.01634 and -0.02192 and 0.0187
same,Log2 reporter intensity values,[6]; 3 at 1 μM,0.1276 and 0.0114 and 0.09532
same,Log2 reporter intensity values,[6]; 3 at 4 μM,0.02376 and -0.03158 and 0.02709
same,Log2 reporter intensity values: UCHL5,[7]; 3 at 1 μM,1.151 and 1.125 and 1.14
same,Log2 reporter intensity values: UCHL5,[7]; 3 at 4 μM,0.8761 and 0.9259 and 0.9496
same,Log2 reporter intensity values,[7]; 3_1 μM,0.1503 and 0.124 and 0.1395
same,Log2 reporter intensity values,[7]; 3_4 μM,-0.1246 and -0.07482 and -0.05103
same,Log2 reporter intensity values,[7]; 3 at 1 μM,0.2029 and 0.1696 and 0.1893
same,Log2 reporter intensity values,[7]; 3 at 4 μM,-0.1908 and -0.1111 and -0.07454
